# Measured values: patent US4427698A, “Use of N,N-dimethyl-N'-p-tolyl-N'-dichlorofluoromethylthio-sulphamide for combating fungi which damage wood” (Bayer Aktiengesellschaft, priority 1978, dated 1984)
# Key:
# rats = details: Caines, Toxycology and Applied Pharmacology 14, 515 (1969); cited from earlier work
# male rats [1] = details: comparison substance pentachlorophenol; cited from earlier work
# [2] = tested on: Ceratocystis coerulenceus; experiment: MIC determination in agar (beer wort and peptone); assay type: cell-based
# Method: (§1) Determination of the minimum inhibitory concentration (MIC)
# (§2) The active compound according to the invention is added, in concentrations of 2 mg/l to 5,000 mg/l, to an agar which is prepared from beer wort and peptone. After storing for 2 weeks at 28° C. and 60-70% relative atmospheric humidity the MIC is determined.
# Ceratocystis pini = experiment: MIC determination in agar (beer wort and peptone); assay type: cell-based
# Method: as §1, §2
# Chaetomium globosum = experiment: MIC determination in agar (beer wort and peptone); assay type: cell-based
# Method: as §1, §2
# Coniophora cerebella = experiment: MIC determination in agar (beer wort and peptone); assay type: cell-based
# Method: as §1, §2
# Lentinus tigrinus = experiment: MIC determination in agar (beer wort and peptone); assay type: cell-based
# Method: as §1, §2
# Poria Vaporaria = experiment: MIC determination in agar (beer wort and peptone); assay type: cell-based
# Method: as §1, §2
# Ceratocystis piceae = experiment: activity against wood-damaging fungi; assay type: cell-based
# Coriolus versicolor = experiment: activity against wood-damaging fungi; assay type: cell-based
# [3] = Solubilities in % by weight; assay type: physicochemical
# Source text: Solubilities in % by weight of N,N-dimethyl-N'-p-tolyl-N'-dichlorofluoromethylthio-sulphamide (A) compared with N,N-dimethyl-N'-phenyl-N'-dichlorofluoromethylthio-sulphamide (B) and N-dichlorofluoromethylthio-phthalimide (C).
# [4] = Peroral toxicity, single administration by probang to male rats; details: rat, in vivo, po, dissolved in acetone, Probit analysis, read-out: LD50 perorally
# Method: The LD50 was calculated by means of Probit analysis (Fink et al, Methods of information in medicin 5, 19, 1966).
# [5] = Cutaneous treatment of male rats; assay type: in vivo, rat; details: rat, in vivo, topical or ocular, read-out: LD50 cutaneously
# male rats [6] = experiment: Cutaneous treatment of male rats; assay type: in vivo, rat; details: cutaneous treatment
# [7] = cumulative and percutaneous toxic action; assay type: in vivo; details: in contrast to known active compounds, for example pentachlorophenol
# [8] = 336 h, 2 weeks at 28° C., 60-70% relative humidity
# [9] = Benzine fraction, boiling point 140-190° C.
# [10] = Mixture of aromatic hydrocarbons, boiling point 159-175° C.
smiles,measurement,setting,value
Oc1c(Cl)c(Cl)c(Cl)c(Cl)c1Cl [Pentachlorophenol],LD50 perorally,rats,160 mg/kg of body weight
same,LD50 cutaneously,male rats [1],325 mg/kg
same,percutaneous toxic action (in words),male rats [1],has a toxic action
"Cc1ccc(N(SC(F)(Cl)Cl)S(=O)(=O)N(C)C)cc1 [A, N,N-dimethyl-N'-p-tolyl-N'-dichlorofluoromethylthio-sulphamide]",active against wood-damaging fungi,[2],active
same,MIC,[2]; [8],20 µg/mL
same,active against wood-damaging fungi,Ceratocystis pini,active
same,MIC,Ceratocystis pini; [8],20 µg/mL
same,active against wood-damaging fungi,Chaetomium globosum,active
same,MIC,Chaetomium globosum; [8],10 µg/mL
same,active against wood-damaging fungi,Coniophora cerebella,active
same,MIC,Coniophora cerebella; [8],10 µg/mL
same,active against wood-damaging fungi,Lentinus tigrinus,active
same,MIC,Lentinus tigrinus; [8],5 µg/mL
same,MIC,"Poria Vaporaria; 336 h, Poria Vaporaria, 2 weeks at 28° C., 60-70% relative humidity",2 µg/mL
same,active against wood-damaging fungi,Poria Vaporaria; Poria vaporaria,active
same,active against wood-damaging fungi,Ceratocystis piceae,active
same,active against wood-damaging fungi,Coriolus versicolor,active
same,Solubility,[3]; [9],2.5 % by weight
same,Solubility,[3]; Ethyl acetate,33 % by weight
same,Solubility,[3]; Methanol,5 % by weight
same,Solubility,[3]; [10],20 % by weight
same,Solubility,[3]; Xylene,29 % by weight
same,solubility (in words),[3]; organic solvents,very readily soluble
same,LD50,[4],> 2500 mg/kg
same,LD50,[5],> 500 mg/kg
same,percutaneous toxicity compared with the other sulphamide (in words),male rats [6],just as low a toxicity
same,cumulative or percutaneous toxic action (in words),[7],neither a cumulative nor a percutaneous toxic action
"CN(C)S(=O)(=O)N(SC(F)(Cl)Cl)c1ccccc1 [B, N,N-dimethyl-N'-phenyl-N'-dichlorofluoromethylthio-sulphamide]",Solubility,[3]; [9],1.2 % by weight
same,Solubility,[3]; Ethyl acetate,11 % by weight
same,Solubility,[3]; Methanol,1.5 % by weight
same,Solubility,[3]; [10],7.5 % by weight
same,Solubility,[3]; Xylene,6.5 % by weight
same,solubility (in words),[3]; formulating agents customary for wood protection agents,very poor solubility
